From patent publication US4699907A, “4-morpholinyl-1H-indoles, pharmaceutical compositions and use” (Roussel Uclaf, priority 1985, dated 1987)

Key:
mice = experiment: Acute toxicity study; type: in vivo; settings: oral administration to mice
Description: The lethal doses LDO of the different compounds tested were evaluated after oral administration to mice.

male rats = experiment: Test of labyrinth in T after partial lesion of the septo hippocampic route; type: in vivo, rat; settings: electrolytic partial septo-hippocampic lesion, 20 mg/kg orally, 1 hour before test, days +5 to +8, compared to untreated animals
Description: A: Test of labyrinth in T after partial lesion of the septo hippocampic route
By means of an electrolytic partial lesion of neurons of the septo-hippocampic route, a disfunction of the cognitive faculty was provoked in male rats having acquired an apprenticeship in a labyrinth in the form of a T and then the speed of recovery of the disturbed memory faculties was measured. The animals got accustomed to their new environment on days -9 to -6 and rested on days -5 and -4. Their apprenticeship was carried out on days -3 to 0. At this time, the response of the rats was positive at 75-80%. On day 0, the lesion was carried out and the animals rested on days +1 to +3. The animals were tested on day +4 and at this time, only 50% of the responses were positive. From day +5 to +8, the rats were tested after being treated orally with the products under test 1 hour earlier. On day +11, the rats were tested without treatment. The percentage of positive responses of the treated animals were compared in relation to the untreated animals.

enolase γγ = experiment: Test for enolase (kainic acid induced neuron lesions); type: in vivo; settings: mice; 1 mg/kg intraperitoneally one hour before 35 mg/kg sub-cutaneous kainic acid
hippocampus of the rat = experiment: Test for neuron activation (accumulation of 2-deoxyglucose-6-phosphate); type: in vivo; settings: 14C 2-deoxyglucose tracer dose
Description: C: Test for neuron activation
Neuron activation causes an increase in the corresponding metabolism which is shown by an increase in the consumption of glucose, a proof of energy consumption. This increase was evaluated by measuring the accumulation in the neuron cells of 2deoxyglucose-6-phosphate stemming from the conversion by hexokinase of 2-deoxyglucose ^14 C, an analogue of glucose, administered as a tracer dose, which used the same route of entry into the cell as glucose.

Question: Which “LDO (maximum dose which does not cause mortality in 8 days)” value (mice) does the source give for `CN1C[C@H](CO)O[C@H](c2cccc3[nH]ccc23)C1` (relative stereo) [Example 3, (2RS, 6RS) 6-(1H-indol-4-yl)-4-methyl-2-morpholine methanol] here?
Answer: The value was ≥ 400 mg/kg.

Question: Which “recovery of the memory functions” value (male rats) does the source give for `CSC[C@H]1CN(C)C[C@@H](c2cccc3[nH]ccc23)O1` (relative stereo) [Example 4, 4-[(2R-cis) 4-methyl-6-[(methylthio)methyl]-2-morpholinyl]-1H-indole (dl)] here?
Answer: The value was “significantly improved the recovery of the memory functions”.

Question: And the “decrease of the serous concentration of enolase γγ” value (enolase γγ)?
Answer: The value was 34%.

Question: And the “accumulation of 2-deoxyglucose 6-P in the hippocampus” value (hippocampus of the rat)?
Answer: The value was “increase in the accumulation of 2-deoxyglucose 6-P”.

Question: What about the “LDO (maximum dose which does not cause mortality in 8 days)” value (mice) of the same molecule?
Answer: The value was 200 mg/kg.

Question: For `CN1C[C@H](CC#N)O[C@H](c2cccc3[nH]ccc23)C1` (relative stereo) [Example 5, (2SR, 6RS) 6-(1H-indol-4-yl)-4-methyl-2-morpholine acetonitrile], which “LDO (maximum dose which does not cause mortality in 8 days)” value (mice) is on record?
Answer: Its value is ≥ 200 mg/kg.

Question: How did the “LDO (maximum dose which does not cause mortality in 8 days)” value (mice) turn out when “N,N-diethyl 6-(1H-indol-4-yl)-4-methyl-2-morpholine carboxamide [Example 2]” was run?
Answer: The value was ≥ 200 mg/kg.
